From patent US20070213291A1, “Therapeutically useful synthetic oligonucleotides” (priority 1999, published 2007)
Values joined by “and” are separate entries in the source; they are usually repeats but may differ in a detail not shown here. Equal entries are not always repeated.

Legend:
PARP = PARP cleavage by Western blot; type: cell-based, human; conditions: Jurkat, 72 h, 100 μg/ml (FIG. 3B)
Procedure: Jurkat T cell leukemia cells were incubated for 72 h with 6 base GT SEQ ID NO:25. The cells were washed 3× with PBS, lysed with 10 mM HEPES, pH 7.5 containing 5 mM MgCl2, 1 mM dithiothreitol, 1.5 nM aprotinin, 10 mM leupeptin and 2.5 μm Na orthovanadate, and the protein content of the lysate was determined (Bradford J. Anal. Biochem. 72:248, 1976).
Activated caspase 7 and PARP cleavage were detected by Western blot analysis. Lysate was mixed with Laemmli buffer (Laemmli U. Nature […], 1970), shaken, and heated at 100° C. for 4 min. […] The separated proteins were electroblotted onto a PVDF membrane. Equal protein loading was monitored by Ponceau red staining of the membrane.
The membrane was blocked overnight at 4° C. with a buffer containing 1% Tris-buffered saline (2 mM Tris-HCl, 13.7 mM NaCl, pH 7.6, and 0.1% polyethylenesorbitan monolaurate (TWEEN 20) (TBST) +5% non-fat dry milk. The membrane was washed and was incubated for 1 h at RT with a mouse monoclonal IgG anti-caspase 7 antibody (Pharmingen) (diluted 1:1000 in TBST+1% BSA) or with a mouse monoclonal IgG anti-PARP antibody (diluted 1:1000 in TBST+1% BSA) (Pharmingen). IgG bound to caspase 7 or to PARP was detected with sheep anti-mouse IgG conjugated to horseradish peroxidase (diluted 1:1000 in TBST+5% non-fat dry milk) (Pharmingen). […]

[1] = test system: OVCAR-3 human ovarian cancer cells; assay: Inhibition of OVCAR-3 cell proliferation (MTT); type: cell-based; conditions: 100 μg/ml, 48 h, 5×10^5 cells/ml
Procedure: (§1) Cells were seeded in 6 (1 ml/well), 24 (0.5 ml/well) or 96 (0.1 ml/well) well flat-bottom microplates and were maintained at 37° C. in a 5% CO2 atmosphere. Unless stated otherwise, 2.5×10^5 cells/ml were incubated with 0 μg/ml (control) and 100 μg/ml (treated) of 2 to 45 base sequences containing A, C, G and T for 48 h.
(§2) Cell proliferation was measured using dimethylthiazol-diphenyl-tetrazolium (MTT) reduction (Mosman et al. J. Immunol. Methods 65:55, 1983). MTT was measured at a wavelength of 570 nm using a multiplate spectrophotometer reader (ELX800, Bio-TEK Instruments Inc., Winooski, Vt.).
OVCAR-3 ovarian cancer cells are a p53 mutated, p21/waf-1/Cip deleted, metastatic human solid tumor model. OVCAR-3 cells (5×10^5 cells/ml) were incubated with 2, 6 and 18 base GT sequences and with a 6 base AGT sequence (Table 11).

[2] = test system: L-1210 murine leukemia cells; assay: Inhibition of L-1210 cell proliferation; type: cell-based
Procedure: as §1, §2

[3] = test system: MCF-7 human breast cancer cells; assay: Cell cycle stage in MCF-7 cells (propidium iodide flow cytometry); type: cell-based; conditions: MCF-7, 5×10^5 cells/ml, 24 h
Procedure: Cell cycle stage was determined using a […]™ PLUS DNA commercial kit (Becton Dickinson). Briefly, nuclei from cells were obtained by dissolving the cell membrane in a nonionic detergent, eliminating the cell cytoskeleton and nuclear proteins with trypsin, digesting the cellular RNA with RNase and stabilizing the nuclear chromatin with spermine. Propidium iodide was added to the cell nuclei and their fluorescence was analyzed in a flow cytometer equipped with electronic doublet discrimination capability (FACSCalibur, Becton Dickinson, San Jose, Calif.). Accumulation of cells in G0/G1, early S (SE), mid S (SM), late S (SL) or G2/M phases of the cell cycle was analyzed using MODFIT LT software (Verity Software House Inc., Topsham, Mass.).
Exponentially growing Jurkat human leukemia T cells (Table 28) and MCF-7 human breast cancer cells (5×10^5 cells/ml) (Table 29) were incubated for 24 h with 2, 6, 15, 18, 27 and 45 base sequences containing A, C, G and T. The cells were collected and centrifuged and cell cycle stage was determined.

## GGGTGG [SEQ ID NO:25]
PARP
  PARP cleavage: active PARP to its inactive 85 kDa degradation product
[1]
  % INHIBITION of OVCAR-3 human ovarian cancer cell proliferation: 15% and 14%
[2]
  % inhibition of L-1210 murine cancer cell proliferation: 8%
[3]
  % cells in phase: G0/G1: 21.9%
  % cells in phase: G2/M: 17.4%
  % cells in phase: SE: 27.6%
  % cells in phase: SL: 10.9%
  % cells in phase: SM: 22.2%
  Arrest (cell cycle): End SM
